Legend:
[1] = target: C-8 sterol isomerase ERG2 (Saccharomyces cerevisiae S288c, UniProt P32352); test: Affinity for ERG2 of Saccharomyces cerevisiae using [3H]ifenprodil or (+)-[3H]pentazocine radioligand
[2] = target: 3-beta-hydroxysteroid-Delta(8),Delta(7)-isomerase (Homo sapiens, UniProt Q15125); test: Affinity for human EMP expressed in ERG2 deficient strain of Saccharomyces cerevisiae using [3H]ifenprodil or (+)-[3H]pentazocine as radioligand
Chain of 3-beta-hydroxysteroid-Delta(8),Delta(7)-isomerase (Q15125 whole entry): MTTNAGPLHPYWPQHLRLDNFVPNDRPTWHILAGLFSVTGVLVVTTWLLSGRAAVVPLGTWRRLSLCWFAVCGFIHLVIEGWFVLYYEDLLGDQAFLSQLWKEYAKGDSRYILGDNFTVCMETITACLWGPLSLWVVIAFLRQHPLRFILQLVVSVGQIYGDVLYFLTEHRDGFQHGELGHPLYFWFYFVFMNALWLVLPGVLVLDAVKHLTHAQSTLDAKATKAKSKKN

Chain of C-8 sterol isomerase ERG2 (P32352 whole entry): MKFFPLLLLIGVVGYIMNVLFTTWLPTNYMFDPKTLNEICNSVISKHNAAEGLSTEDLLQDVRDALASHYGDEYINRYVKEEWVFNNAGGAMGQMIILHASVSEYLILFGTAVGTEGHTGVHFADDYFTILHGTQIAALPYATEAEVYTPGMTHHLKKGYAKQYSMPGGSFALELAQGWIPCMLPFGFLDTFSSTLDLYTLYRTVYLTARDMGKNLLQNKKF

Row | Structure (SMILES) | Ki ([1]; read-out: Ki) [nM] | Ki [2] [nM] | Ki [1] [nM]
1 | CC(C)CCCC(C)CCCC(C)N1CC[C@H]2[C@H](C)[C@@H](O)CC[C@]2(C)C1 (stereo not given in full) | 0.4 | 0.6 | 
2 | CC(C)[C@](C#N)(CCCN(C)CCc1ccccc1)c1ccccc1 | 65 | 6 | 
3 | CCCCCCCOc1ccccc1NC(=O)OC(C)CN(CC)CC (stereo not given) | 2800 | 51 | 
4 | CCN(C/C=C/c1ccc(C2CCCCC2)c(Cl)c1)C1CCCCC1 | 9 | 3 | 
5 | O=C(O)c1ccc(CCN2CCN(C/C=C/c3ccc(Cl)cc3)CC2)cc1 | 16500 | 34000 | 
6 | CC/C(=C(/CC)c1ccc(OCCN(CC)CC)cc1)c1ccc(OCCN(CC)CC)cc1 | 0.7 | 54 | 
7 | CCCN(CCC)CCc1ccc(OC)c(OCCc2ccccc2)c1 |  | 15 | 
8 | C=CCN1CC[C@@]2(C)c3cc(O)ccc3CC1[C@H]2C | 4700 | 9300 | 
9 | CC(C)=CCN1CC[C@@]2(C)c3cc(O)ccc3CC1[C@H]2C | 1000 | 500 | 
10 | N=C(NCc1ccccc1)Nc1nc(-c2cc3ccccc3[nH]2)cs1 | 31700 | 8500 | 
11 | CN(c1nc2ccccc2s1)C1CCN(CCCCOc2ccccc2)C1 (stereo not given) | 169 | 450 | 
12 | CCN(CC)CCO[C@H]1CC[C@@]2(C)C(=CC[C@@H]3[C@@H]2CC[C@]2(C)C(=O)CC[C@@H]32)C1 | 0.2 | 2 | 
13 | CC1CC[C@]2(NC1)O[C@H]1C[C@H]3[C@@H]4CC[C@H]5C[C@@H](O)CC[C@]5(C)[C@H]4CC[C@]3(C)[C@H]1[C@@H]2C (stereo not given in full) | 387 | 583 | 
14 | N=C(NCCSC(c1ccccc1)c1ccccc1)NCCc1cnc[nH]1 | 170 | 39 | 
15 | CCCCCCCCCCCCCN1C[C@@H](C)O[C@@H](C)C1 | 0.09 | 1 | 
16 | CC1=C2C[C@H]3[C@@H](CC=C4C[C@@H](O)CC[C@@]43C)[C@@H]2CC[C@]12O[C@]1(C)C[C@H](C)CN[C@H]1[C@H]2C | 500 | 654 | 
17 | CC1CC[C@@]2(NC1)O[C@H]1C[C@H]3[C@@H]4CC=C5C[C@@H](O)CC[C@]5(C)[C@H]4CC[C@]3(C)[C@H]1[C@@H]2C (stereo not given in full) | 1170 | > 100000 | 
18 | CCCCN1CCC2(CCCc3ccccc32)CC1 | 5 | 1 | 
19 | CCCN1CCC[C@H](c2cccc(O)c2)C1 | 1200 | 2200 | 
20 | C[C@H]1CCC2[C@@H](C)[C@H]3[C@H](C[C@H]4C5CC=C6C[C@@H](O)CC[C@]6(C)[C@H]5CC[C@]34C)N2C1 (single isomer, unassigned) | > 100000 | 441 | 
21 | C[C@H]([C@@H](O)c1ccc(O)cc1)N1CCC(Cc2ccccc2)CC1 [(S,R)-IFENPRODIL] | 1 |  | 

Row | Structure (SMILES) | Ki ([1]; read-out: Ki) [nM] | Ki [2] [nM] | Ki [1] [nM]
22 | COc1cc(OC)c(C(=O)CCCN2CCCC2)c(OC)c1 [BUFLOMEDIL] | 7150 | 60 | 
23 | C[C@]12C[C@H](O)[C@H]3[C@@H](CCC4=CC(=O)CC[C@@]43C)[C@@H]1CC[C@@H]2C(=O)CO [CORTICOSTERONE] | > 100000 | > 100000 | 
24 | Cc1ccccc1NC(=N)Nc1ccccc1C [DITOLYLGUANIDINE] | 2000 | 6700 | 
25 | CCN(CC)CCOc1ccc(/C(=C(/Cl)c2ccccc2)c2ccccc2)cc1 [ENCLOMIPHENE] | 160 | 1 | 
26 | CC(Cc1ccc(C(C)(C)C)cc1)CN1C[C@@H](C)O[C@@H](C)C1 (stereo not given in full) [FENPROPIMORPH] | 0.05 | 30 | 
27 | O=C(CCCN1CCC(O)(c2ccc(Cl)cc2)CC1)c1ccc(F)cc1 [HALOPERIDOL] | 0.5 | 190 | 
28 | CC1=C2C(=O)[C@H]3[C@@H](CC=C4C[C@@H](O)CC[C@@]43C)[C@@H]2CC[C@]12O[C@@H]1C[C@H](C)CN[C@H]1[C@H]2C [JERVINE] | 284 | > 100000 | 
29 | CC(C)[C@@](C#N)(CCCN(C)CCc1ccccc1)c1ccccc1 [LEVEMOPAMIL] | 74 | 18 | 
30 | COc1ccc2c(c1)CCC(c1ccccc1)=C2c1ccc(OCCN2CCCC2)cc1 [NAFOXIDINE] | 232 |  | 
31 | CN(C/C=C/c1ccccc1)Cc1cccc2ccccc12 [NAFTIFINE] | 310 | 1500 | 
32 | OCCN1CCN(CCCN2c3ccccc3C=Cc3ccccc32)CC1 [OPIPRAMOL] | 17 | 13 | 
33 | CC(=O)[C@H]1CC[C@H]2[C@@H]3CCC4=CC(=O)CC[C@]4(C)[C@H]3CC[C@]12C [PROGESTERONE] | 4430 | > 100000 | 
34 | O=C(c1ccc(OCCN2CCCCC2)cc1)c1c(-c2ccc(O)cc2)sc2cc(O)ccc12 [RALOXIFENE] | 66 | 1 | 
35 | CCCCCCCCCCCCC(C#N)(CCCN(C)CCc1ccccc1)c1ccccc1 (stereo not given) [RONIPAMIL] | 13 | 2 | 
36 | CC/C(=C(\c1ccccc1)c1ccc(OCCN(C)C)cc1)c1ccccc1 [TAMOXIFEN] |  |  | 1500
37 | CN(C/C=C/C#CC(C)(C)C)Cc1cccc2ccccc12 [TERBINAFINE] | > 50000 | > 50000 | 
38 | C[C@]12CC[C@H]3[C@@H](CCC4=CC(=O)CC[C@@]43C)[C@@H]1CC[C@@H]2O [TESTOSTERONE] | 7760 | > 100000 | 
39 | CN1CCN(CCCN2c3ccccc3Sc3ccc(C(F)(F)F)cc32)CC1 [TRIFLUOPERAZINE] | 500 | 8 | 
40 | O=C(CCCN1CCC(O)(c2cccc(C(F)(F)F)c2)CC1)c1ccc(F)cc1 [TRIFLUPERIDOL] | 0.15 | 165 | 
41 | CCN(CC)CCOc1ccc(C(O)(Cc2ccc(Cl)cc2)c2ccc(C)cc2)cc1 (stereo not given) [TRIPARANOL] | 2 | 11 | 
42 | CCN(CC)CCOc1ccc(/C(=C(\Cl)c2ccccc2)c2ccccc2)cc1 [ZUCLOMIPHENE] | 2 | 2 | 

Source: ChEMBL document CHEMBL1140325, “Discovery of high-affinity ligands of sigma1 receptor, ERG2, and emopamil binding protein by pharmacophore modeling and virtual screening” (J Med Chem, 2005)
